Measured values from the supplement of paper PMC10307832.

Legend:
Test in all cases: relative viability (nuclei count vs DMSO), 5 days (fraction); higher = more cells survive
[1] = compound: CC1=CC=C(C=C1)C(=O)CN2C3=C(CCCC3)SC2=N [Pifithrin_alpha] + CC(=O)c1c(C)c2cnc(Nc3ccc(N4CCNCC4)cn3)nc2n(C2CCCC2)c1=O [Palbociclib] (partner 0.5 µM)
Method in brief: (§1)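 Lung cancer cell lines were seeded in 1536-well plates and dosed by pin tool the next day, with either a single drug or a fixed anchor-drug dose combined with five library-drug doses (not always all listed) spaced in √10 steps. Five days later, one step fixed the cells and stained their nuclei (final 0.05% Triton X-100, 1% formaldehyde, 1 ug/ml Hoechst), and nuclei were counted on 4× images. Relative viability is the nuclei count in treated wells divided by the count in vehicle wells, and each value is the median of duplicate plates.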

[2] = compound: CC1=CC=C(C=C1)C(=O)CN2C3=C(CCCC3)SC2=N [Pifithrin_alpha] + N=C(N)NC(=N)NCCc1ccccc1 [Phenformin] (partner 250 µM)
Method in brief: as §1

Axitinib + Crizotinib = compound: CNC(=O)c1ccccc1Sc1ccc2c(/C=C/c3ccccn3)n[nH]c2c1 [Axitinib] + C[C@@H](Oc1cc(-c2cnn(C3CCNCC3)c2)cnc1N)c1c(Cl)ccc(F)c1Cl [Crizotinib] (partner 1 µM)
Method in brief: as §1

Bemcentinib + Bortezomib = compound: Nc1nc(Nc2ccc3c(c2)CC[C@@H](N2CCCC2)CC3)nn1-c1cc2c(nn1)-c1ccccc1CCC2 [Bemcentinib] + CC(C)C[C@H](NC(=O)[C@H](Cc1ccccc1)NC(=O)c1cnccn1)B(O)O [Bortezomib] (partner 0.002 µM)
Method in brief: as §1

Cell Line | relative viability ([1]; first compound 3.162 µM) | relative viability ([1]; first compound 10 µM) | relative viability ([1]; first compound 31.62 µM) | relative viability ([1]; first compound 100 µM) | relative viability ([2]; first compound 1 µM) | relative viability ([2]; first compound 3.162 µM) | relative viability ([2]; first compound 10 µM) | relative viability ([2]; first compound 31.62 µM) | relative viability ([2]; first compound 100 µM) | relative viability (Axitinib + Crizotinib; first compound 0.005 µM) | relative viability (Axitinib + Crizotinib; first compound 0.01581 µM) | relative viability (Axitinib + Crizotinib; first compound 0.05 µM) | relative viability (Axitinib + Crizotinib; first compound 0.1581 µM) | relative viability (Axitinib + Crizotinib; first compound 0.5 µM) | relative viability (Bemcentinib + Bortezomib; first compound 0.04 µM) | relative viability (Bemcentinib + Bortezomib; first compound 0.1265 µM) | relative viability (Bemcentinib + Bortezomib; first compound 0.4 µM) | relative viability (Bemcentinib + Bortezomib; first compound 1.265 µM) | relative viability (Bemcentinib + Bortezomib; first compound 4 µM) | relative viability ([1]; first compound 1 µM)
NCI-H2405 | 0.508 | 0.511 | 0.433 | 0.503 | 0.371 | 0.504 | 0.481 | 0.463 | 0.479 | 0.822 | 0.972 | 0.831 | 0.754 | 0.852 | 1.01 | 0.853 | 0.985 | 1.07 | 0.938 | 
NCI-H1650 | 0.321 | 0.389 | 0.307 | 0.282 |  | 0.446 | 0.333 | 0.273 | 0.349 | 0.979 | 0.949 | 1.04 | 0.947 | 1.13 | 0.199 | 0.209 | 0.199 | 0.192 | 0.225 | 0.285
EMC-BAC-2 | 0.542 | 0.489 | 0.422 | 0.506 | 0.504 | 0.511 | 0.478 |  | 0.556 | 0.819 | 0.859 | 0.766 | 0.754 | 0.719 | 1.07 | 1.15 | 1.07 | 0.952 | 1.11 | 0.493
LCLC-103H | 0.518 | 0.472 | 0.464 | 0.456 | 0.336 | 0.313 | 0.373 | 0.355 | 0.375 | 1.11 | 1.13 | 1 | 1.1 | 1.06 | 1.06 | 1.03 | 1.09 | 1.1 | 1.01 | 0.525
BEN | 0.488 | 0.456 | 0.444 | 0.472 | 0.296 | 0.595 | 0.276 | 0.246 | 0.289 | 0.897 | 1.04 | 0.788 | 0.807 | 0.925 | 0.56 | 0.899 | 0.891 | 0.506 | 0.776 | 0.487
NCI-H1755 | 0.437 | 0.441 | 0.424 | 0.443 | 0.605 | 0.603 | 0.57 | 0.423 | 0.53 | 0.955 | 0.891 | 0.872 | 0.863 | 0.921 | 0.982 | 1 | 0.973 | 0.995 | 0.961 | 0.433
LU99A | 0.445 | 0.387 |  | 0.453 | 0.817 | 0.809 | 0.904 | 0.406 | 0.763 | 0.552 | 0.541 | 0.628 | 0.525 | 0.648 | 1.11 | 1.12 | 1.01 | 1.25 | 1.2 | 0.39
NCI-H460 | 0.102 | 0.12 | 0.0866 | 0.0814 | 0.494 | 0.576 | 0.473 | 0.179 | 0.443 | 1.05 | 0.876 | 0.915 | 0.816 | 1.13 | 1.24 | 1.54 | 1.66 | 1.25 | 1.15 | 0.102
SK-LU-1 | 0.412 | 0.405 | 0.308 | 0.413 | 0.511 | 0.624 | 0.49 |  | 0.625 | 0.999 | 1.12 | 1.11 | 1.02 | 1.1 | 1.02 | 1.35 | 1.38 | 1.3 | 1.25 | 0.349
HARA | 0.266 | 0.26 | 0.265 | 0.226 |  | 0.441 | 0.409 |  | 0.407 | 1.07 | 1.07 | 1.1 | 0.978 | 1.14 | 1.19 | 1.17 | 1.27 | 1.15 | 1.1 | 0.219
ABC-1 | 0.839 | 0.831 | 0.462 | 0.53 | 0.251 | 0.218 | 0.227 | 0.255 | 0.227 | 1.21 | 1.28 | 1.2 | 1.13 | 1.28 | 0.269 | 0.285 | 0.289 | 0.285 | 0.257 | 
